# What was measured:
# protein kinase C = conditions: concentrations of up to 100 μM; cited from earlier work
# ATR = ATR (Homo sapiens, UniProt Q13535); conditions: concentrations of up to 100 μM; cited from earlier work
# [1] = molecular target: cyclin-dependent kinase 2 (Homo sapiens, UniProt P24941); conditions: concentrations of up to 100 μM; cited from earlier work
# [2] = system: CD4+CD45RO− T cells from control donors; experiment: T-cell apoptosis by flow cytometry staining for PI, control T cells; assay type: cell-based, human
# Description: (§1) FIG. 5. Inhibition of DNA-PKcs activity protects RA T cells from apoptosis. CD4+CD45RO− T cells were isolated from 6 control donors and 7 RA patients. Cells were maintained in culture without stimulation for 48 h and then were treated with the DNA-PKcs inhibitor IC86621 (50 nM, 100 nM) or vehicle for 24 h. Cells were harvested and (A) T-cell apoptosis was measured by flow cytometry staining for PI. Representative cytometric data from one patient and one control are shown. (B) Frequencies of PI-positive T-cells in the absence and presence of the DNA-PKcs inhibitor from 6 controls and 7 RA patients are presented as mean±SEM.
# Peripheral blood mononuclear cells (PBMC) were separated from whole blood with Lymphocyte Separation Medium (Mediatech Inc., Herndon, Va.). CD45RO^− cells were negatively selected with microbeads (Miltenyi Biotec Inc., Auburn, Calif.), and the naïve CD4^+CD45RO^− population was subsequently selected with CD4 microbeads (autoMACS, Miltenyi Biotec Inc.). […]
# To quantify T-cell apoptosis, CD4^+CD45RO^− cells were washed and suspended in 500 μl FACS buffer supplemented with EasyComp Blank Particles (Spherotech, Lake Forest, Ill.). Uptake of PI (Sigma-Aldrich) was determined by flow cytometry. Apoptotic cells were detected with PE-Annexin V (BD Biosciences, San Jose, Calif.) and 7-AAD (BD Biosciences).
# ATM = ATM (Homo sapiens, UniProt Q13315); conditions: concentrations of up to 100 μM; cited from earlier work
# [3] = molecular target: T1, checkpoint protein kinase 1 (Homo sapiens, UniProt O14757); conditions: concentrations of up to 100 μM; cited from earlier work
# T1 sequence (O14757 1-476): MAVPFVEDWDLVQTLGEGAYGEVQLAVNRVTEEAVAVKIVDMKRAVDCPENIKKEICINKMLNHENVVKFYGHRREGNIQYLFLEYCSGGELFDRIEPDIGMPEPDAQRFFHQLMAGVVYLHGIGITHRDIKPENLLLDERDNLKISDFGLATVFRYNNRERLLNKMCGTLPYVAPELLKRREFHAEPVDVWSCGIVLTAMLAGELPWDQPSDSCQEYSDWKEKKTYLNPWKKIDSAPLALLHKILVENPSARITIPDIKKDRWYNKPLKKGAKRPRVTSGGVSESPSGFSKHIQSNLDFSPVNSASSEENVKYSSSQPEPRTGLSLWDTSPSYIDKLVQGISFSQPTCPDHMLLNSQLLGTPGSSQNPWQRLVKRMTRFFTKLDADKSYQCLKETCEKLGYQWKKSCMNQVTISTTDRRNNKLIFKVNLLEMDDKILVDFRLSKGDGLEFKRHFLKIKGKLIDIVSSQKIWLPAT
# aurora-related kinase 2 = aurora-related kinase 2 (Homo sapiens, UniProt Q96GD4); conditions: concentrations of up to 100 μM; cited from earlier work
# [4] = system: CD4+CD45RO− T cells from RA patients; experiment: T-cell apoptosis by flow cytometry staining for PI, RA T cells; assay type: cell-based, human
# Description: as §1
# FIG. 6. Silencing of the DNA-PKcs gene reduces apoptosis in RA T cells. CD4+CD45RO− T cells were purified from 3 control donors and 3 RA patients and transfected with control or DNA-PKcs specific siRNA oligonucleotides by nucleofection. (A, B) Twenty-four hours after transfection, DNA-PKcs transcript levels were quantified by qPCR, and DNA-PKcs protein levels were detected by Western blotting. (C) T-cell apoptosis was analyzed by staining for PI. Representative data from one patient and one control are shown. (D) Cell apoptosis from 3 control and 3 RA samples are presented as mean±SEM.
# FIG. 7. […] (A) CD4+CD45RO− T cells were isolated and cultured in the presence of the indicated enzyme inhibitors for 24 h. T-cell apoptosis was quantified through flow cytometry staining for PI. (B) Cells were maintained in culture without stimulation for 48 h and then were treated with the JNK inhibitor. PI-positive T cells were measured after 24 h of treatment with the JNK inhibitor II (5 μM or 10 μM) or vehicle. Frequencies of apoptotic T cells from 6 controls and 7 RA patients are presented as mean±SEM. (C) Representative flow cytometry results from one control and one patient. (D) Flow cytometry analysis of phosphorylated JNK levels in control and RA T cells after culturing without mitogenic stimulation for 72 h. Representative data from one patient and one control are presented. (E) Expression of pJNK protein in n=6 RA and n=6 control samples at 72 h is given as MFI of FITC-pJNK. (F) Flow cytometry analysis of phosphorylated JNK levels in freshly isolated control and RA naïve CD4 T cells. Expression of pJNK protein in n=7 RA and n=7 control samples at day 0 is given as MFI of FITC-pJNK. (G) Quantification of JNK and pJNK protein expression at 72 h by Western blotting. (H) Relative expression levels of pJNK were quantified by measuring band intensities adjusted by total JNK in 6 RA patients and 6 control donors. Data are presented as mean±SEM. (I) CD4+CD45RO− T cells were purified from RA donors and transfected with control or DNA-PKcs-specific siRNA oligonucleotides by nucleofection. Twenty-four hours after transfection, DNA-PKcs and pJNK protein levels were detected by Western blotting. A representative blot from three independent experiments is shown.
# Peripheral blood mononuclear cells (PBMC) were separated from whole blood with Lymphocyte Separation Medium (Mediatech Inc., Herndon, Va.). CD45RO^− cells were negatively selected with microbeads (Miltenyi Biotec Inc., Auburn, Calif.), and the naïve CD4^+CD45RO^− population was subsequently selected with CD4 microbeads (autoMACS, Miltenyi Biotec Inc.).
# CD4^+CD45RO^− T cells were maintained in a resting state in DMEM without mitogenic stimulation for three days. In selected experiments, T-cell homeostatic cytokines were supplemented. To test for the role of signaling networks in mediating apoptosis, the following inhibitors were added to the cultures at day 0: DNA-PKcs inhibitor IC86621 (Sigma-Aldrich, St. Louis, Mo.), JNK inhibitor II (Calbiochem, La Jolla, Calif.), p38 inhibitor (Alexis Biochemicals, Plymouth Meeting, Pa., SB203580), CaM inhibitor (Calbiochem), NE-KB inhibitor (Calbiochem), and AKT inhibitor (Calbiochem). […]
# aurora-related kinase 2, sequence (Q96GD4 whole entry): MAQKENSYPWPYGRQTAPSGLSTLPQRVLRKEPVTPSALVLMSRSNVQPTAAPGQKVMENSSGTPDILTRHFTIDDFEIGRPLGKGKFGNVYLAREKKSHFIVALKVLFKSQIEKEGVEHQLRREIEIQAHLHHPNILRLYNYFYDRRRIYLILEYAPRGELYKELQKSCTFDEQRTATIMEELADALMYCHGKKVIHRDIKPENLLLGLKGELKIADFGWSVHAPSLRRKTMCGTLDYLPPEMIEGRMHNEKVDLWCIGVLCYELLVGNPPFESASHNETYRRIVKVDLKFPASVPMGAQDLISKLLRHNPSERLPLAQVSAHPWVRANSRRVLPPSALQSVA
# ATR, sequence (Q13535 whole entry): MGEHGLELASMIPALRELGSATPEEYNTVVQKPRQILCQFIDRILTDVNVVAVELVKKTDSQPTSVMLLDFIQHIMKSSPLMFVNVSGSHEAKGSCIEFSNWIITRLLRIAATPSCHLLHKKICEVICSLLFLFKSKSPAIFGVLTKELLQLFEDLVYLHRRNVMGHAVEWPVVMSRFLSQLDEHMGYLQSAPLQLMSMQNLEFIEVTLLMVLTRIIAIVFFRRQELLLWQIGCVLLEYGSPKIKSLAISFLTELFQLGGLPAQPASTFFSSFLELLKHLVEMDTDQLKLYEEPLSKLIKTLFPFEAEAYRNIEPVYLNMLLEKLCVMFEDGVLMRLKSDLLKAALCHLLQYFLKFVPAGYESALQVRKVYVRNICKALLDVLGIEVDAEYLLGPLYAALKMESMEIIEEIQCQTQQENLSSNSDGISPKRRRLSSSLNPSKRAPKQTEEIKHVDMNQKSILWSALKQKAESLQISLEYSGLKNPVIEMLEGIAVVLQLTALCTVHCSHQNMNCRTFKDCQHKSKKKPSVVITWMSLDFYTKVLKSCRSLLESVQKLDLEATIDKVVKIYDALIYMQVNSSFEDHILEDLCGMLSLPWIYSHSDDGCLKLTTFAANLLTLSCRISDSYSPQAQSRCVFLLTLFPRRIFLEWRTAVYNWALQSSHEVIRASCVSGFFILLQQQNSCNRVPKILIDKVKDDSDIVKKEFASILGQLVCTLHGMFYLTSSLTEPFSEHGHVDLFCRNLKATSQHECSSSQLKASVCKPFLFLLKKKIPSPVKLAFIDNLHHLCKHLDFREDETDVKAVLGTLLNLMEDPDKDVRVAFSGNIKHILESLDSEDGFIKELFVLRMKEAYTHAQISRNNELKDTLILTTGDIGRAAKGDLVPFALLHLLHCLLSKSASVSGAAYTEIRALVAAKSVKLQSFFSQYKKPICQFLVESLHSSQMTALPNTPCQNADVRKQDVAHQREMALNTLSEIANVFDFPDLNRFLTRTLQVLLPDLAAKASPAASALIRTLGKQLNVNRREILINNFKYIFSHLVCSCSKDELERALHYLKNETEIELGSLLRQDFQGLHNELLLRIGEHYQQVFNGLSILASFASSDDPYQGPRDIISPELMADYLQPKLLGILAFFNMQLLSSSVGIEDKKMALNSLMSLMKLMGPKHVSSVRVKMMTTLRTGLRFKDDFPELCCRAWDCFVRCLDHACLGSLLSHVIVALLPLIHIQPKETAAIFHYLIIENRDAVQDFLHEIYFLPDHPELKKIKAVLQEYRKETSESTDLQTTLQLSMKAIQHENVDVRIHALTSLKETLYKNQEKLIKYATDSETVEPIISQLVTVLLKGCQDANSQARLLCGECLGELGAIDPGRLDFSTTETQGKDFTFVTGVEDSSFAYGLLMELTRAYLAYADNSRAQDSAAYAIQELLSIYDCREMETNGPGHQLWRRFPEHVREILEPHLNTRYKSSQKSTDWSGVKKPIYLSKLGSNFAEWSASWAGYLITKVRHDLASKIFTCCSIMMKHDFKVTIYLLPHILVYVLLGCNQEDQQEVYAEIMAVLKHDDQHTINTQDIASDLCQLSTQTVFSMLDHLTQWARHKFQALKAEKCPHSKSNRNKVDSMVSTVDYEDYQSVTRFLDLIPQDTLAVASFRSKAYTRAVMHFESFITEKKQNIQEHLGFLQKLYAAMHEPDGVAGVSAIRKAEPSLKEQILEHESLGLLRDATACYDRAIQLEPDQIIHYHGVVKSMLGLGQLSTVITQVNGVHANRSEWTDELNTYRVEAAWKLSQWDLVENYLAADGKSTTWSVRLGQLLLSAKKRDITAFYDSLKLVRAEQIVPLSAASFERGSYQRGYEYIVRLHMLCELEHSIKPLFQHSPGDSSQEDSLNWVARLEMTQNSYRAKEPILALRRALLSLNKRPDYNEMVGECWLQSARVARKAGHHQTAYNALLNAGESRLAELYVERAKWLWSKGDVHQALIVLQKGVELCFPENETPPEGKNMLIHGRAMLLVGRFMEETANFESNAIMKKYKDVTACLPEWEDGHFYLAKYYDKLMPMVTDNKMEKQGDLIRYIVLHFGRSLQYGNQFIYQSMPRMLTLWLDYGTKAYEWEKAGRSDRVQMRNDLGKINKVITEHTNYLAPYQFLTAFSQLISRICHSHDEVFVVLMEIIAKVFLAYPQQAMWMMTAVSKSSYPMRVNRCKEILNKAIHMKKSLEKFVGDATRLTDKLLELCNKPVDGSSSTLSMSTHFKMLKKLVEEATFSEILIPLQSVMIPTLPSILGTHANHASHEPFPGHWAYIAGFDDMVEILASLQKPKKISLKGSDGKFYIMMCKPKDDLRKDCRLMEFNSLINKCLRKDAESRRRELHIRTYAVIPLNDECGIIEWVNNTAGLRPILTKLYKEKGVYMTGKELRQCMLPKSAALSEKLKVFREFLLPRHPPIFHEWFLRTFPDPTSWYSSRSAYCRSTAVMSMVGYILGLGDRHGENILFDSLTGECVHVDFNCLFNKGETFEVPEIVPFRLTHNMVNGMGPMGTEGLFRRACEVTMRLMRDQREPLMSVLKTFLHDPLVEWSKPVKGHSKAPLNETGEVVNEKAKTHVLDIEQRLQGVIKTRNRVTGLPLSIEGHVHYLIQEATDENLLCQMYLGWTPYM
# ATR, sequence (Q8WXE1 whole entry partner): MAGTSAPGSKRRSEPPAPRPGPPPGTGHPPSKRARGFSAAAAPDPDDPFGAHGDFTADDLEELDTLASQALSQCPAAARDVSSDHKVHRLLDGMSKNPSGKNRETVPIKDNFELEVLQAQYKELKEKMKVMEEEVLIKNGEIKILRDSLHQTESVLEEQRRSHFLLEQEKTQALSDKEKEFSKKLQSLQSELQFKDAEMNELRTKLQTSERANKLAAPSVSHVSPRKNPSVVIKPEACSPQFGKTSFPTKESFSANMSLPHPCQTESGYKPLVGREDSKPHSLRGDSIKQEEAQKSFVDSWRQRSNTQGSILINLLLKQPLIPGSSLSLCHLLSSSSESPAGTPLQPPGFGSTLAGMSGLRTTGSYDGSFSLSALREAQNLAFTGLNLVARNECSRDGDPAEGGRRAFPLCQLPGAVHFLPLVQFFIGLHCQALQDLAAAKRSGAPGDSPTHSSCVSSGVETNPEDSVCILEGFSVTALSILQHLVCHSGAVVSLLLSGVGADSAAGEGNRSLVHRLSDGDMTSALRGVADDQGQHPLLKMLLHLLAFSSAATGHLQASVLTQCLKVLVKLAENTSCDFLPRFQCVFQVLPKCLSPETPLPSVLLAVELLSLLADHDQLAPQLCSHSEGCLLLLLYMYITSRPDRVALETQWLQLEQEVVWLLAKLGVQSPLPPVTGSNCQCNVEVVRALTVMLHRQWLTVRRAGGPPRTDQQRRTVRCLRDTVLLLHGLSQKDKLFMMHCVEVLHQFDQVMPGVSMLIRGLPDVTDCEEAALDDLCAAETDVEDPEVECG
smiles,measurement,setting,value
"CC(=O)c1ccc(N2CCOCC2)cc1O [IC86621, 1-(2-hydroxy-4-morpholin-4-ylphenyl)ethanone]",activity against protein kinase C,protein kinase C,neither activity
same,activity against ATR,ATR,neither activity
same,activity against cyclin-dependent kinase 2,[1],neither activity
same,apoptotic control T cells,"[2]; after 72 h of ex vivo culture, independent from treatment with the inhibitor",12-14%
same,survival in control T cells,"[2]; control T cells, inhibitor 50 nM, 100 nM for 24 h",essentially did not affect survival
same,activity against ATM,ATM,neither activity
same,activity against checkpoint protein kinase 1,[3],neither activity
same,activity against aurora-related kinase 2,aurora-related kinase 2,neither activity
same,"protection of RA T cells from apoptosis, dose dependence","[4]; 50 nM, 100 nM",dose-dependent
same,doses at which T cell survival was improved,[4]; RA T cells,50 to 100 nM
same,survival rates among RA T cells,"[4]; RA T cells, 48 h culture then inhibitor (50 nM, 100 nM) for 24 h, PI-positive cells",improved survival rates
same,dose sufficient to normalize apoptotic susceptibility (PI-positive cells reduced to levels of control T cells),"[4]; RA T cells, 72 h ex vivo culture",100 nM
